Results published in patent US9045505B2, “Nitric oxide donors” (University of Otago, priority 2006, dated 2015).

Assays:
[1] = system: liver mitochondria; experiment: S-nitrosation of mitochondrial protein thiols (chemiluminescence SNO assay); type: biochemical, rat; settings: for S-nitrosation of mitochondrial proteins: 2.5 min incubation, SNAP even at 50 μM
Description: FIG. 11 is a series of graphs showing S-nitrosation of mitochondrial thiols by MitoSNAP. (a) Time course of S-nitrosation of mitochondrial proteins by MitoSNAP. Liver mitochondria (1 mg protein) were incubated in 1 ml KCl buffer supplemented with rotenone and succinate in the presence of 5 μM MitoSNAP. At various times mitochondria were treated with 10 mM N-ethylmaleimide (NEM), isolated by centrifugation and the S-nitrosothiol content assessed. Data are of a typical experiment showing means±range of duplicate samples for each time point, each measured in duplicate. The experiment was repeated twice. (b) S-nitrosation of mitochondrial proteins by different concentrations of MitoSNAP and SNAP. Aliquots of liver mitochondria were incubated with the indicated concentrations of MitoSNAP or SNAP for […] in the presence or absence of 500 nM FCCP and then assessed for S-nitrosothiol content as in (a). For the +NEM sample, 10 mM NEM was added to the mitochondria and 1 min later 5 μM MitoSNAP was added and incubated for a further 2.5 min. Data are of a typical experiment showing means±range of duplicate samples for each time point, each measured in duplicate. The experiment was repeated twice. (c) S-nitrosation of cellular protein thiols by MitoSNAP. C2C12 cells were preincubated for 5 min in 2 ml cell culture medium containing either 20 μM FCCP or DMSO carrier, then 5 μM MitoSNAP or SNAP was added. After further incubation for 5 min at 37° C. in the dark, the medium was removed and the content of S-nitrosated proteins was measured. Data are means±range of the duplicate determinations. […] (d) S-nitrosation of a mitochondria-enriched cell subfraction. C2C12 cells were preincubated for 5 min in cell culture medium containing either 20 μM FCCP or dimethylsulfoxide (DMSO) carrier, then 5 μM MitoSNAP was added. After 5 min at 37° C. in the dark, the medium was removed and the cells were processed to isolate a mitochondria-enriched fraction and S-nitrosated protein was then determined Data are mean±sem of triplicate determinations (+MitoSNO1), or mean±range of duplicate determinations (+FCCP). (e & f) Visualisation of S-nitrosated mitochondrial proteins by copper/ascorbate-dependent labelling of thiols with a Cy3 fluorophore. Liver (e) or heart (f) mitochondria (1 mg protein) were incubated in 1 ml KCl buffer supplemented with rotenone and succinate in the presence of no additions, 10 μM MitoSNAP or 500 μM diamide for 5 min. S-nitrosated thiols were then selectively tagged with Cy3 maleimide and protein (10 μg) was then separated on a 12.5% SDS PAGE gel which was stained with coomassie blue and scanned for Cy3 fluorescence. The Cy3 fluorescence (SNO) and coomassie staining (coomassie) of each gel is shown.
FIG. 13 is a trace and graph showing limited S-nitrosation of mitochondria by DetaNONOate. […] Where indicated 500 μM DetaNONOate was added and the concentration of NO^• was measured over time, before 5 μM OxyHb was added. […] Then protein pellets were resuspended and processed for analysis of protein S-nitrosothiols. Control incubations in the presence of 10 mM NEM were also carried out. Data are means±range of two independent experiments each being the average of four mitochondrial incubations.
Nitrite, nitric oxide and S-nitrosothiol measurements. Nitrite was analyzed by the Griess assay (Molecular Probes). Nitric oxide was measured using an NO^• electrode (World Precision Instruments Ltd, UK) connected to an Apollo 4000 Free Radical Analyser. The electrode was inserted into a stirred, sealed 3 ml chamber with a Clark type O2 electrode (Rank Brothers, UK) built into its base and was thermostatted at 37° C. The NO^• electrode was calibrated by adding SNAP to argon-purged, saturated CuCl. OxyHb was prepared by reduction of bovine methemoglobin with sodium dithionite.

[2] = system: rat thoracic aorta; experiment: Relaxation of pre-contracted rat thoracic aorta (myograph); settings: for EC50: pre-contracted rat thoracic aorta, read-out: EC50 blood vessel relaxation
Description: FIG. 16 is a series of graphs showing the vasodilatory and tissue protective effects of MitoSNAP. (a) Dose-response curves for the effect of MitoSNAP and related compounds on blood vessel relaxation. The effects of intact or decomposed MitoSNAP and SNAP on pre-contracted rat thoracic aorta mounted in a myograph were determined Data represent means±sem. For MitoSNAP n=8 from experiments on two independent rat aorta preparations. For decomposed MitoSNAP and SNAP experiments the data (n=4) are from one aorta preparation. (b) EC50 for the effect of MitoSNAP and SNAP on blood vessel relaxation. The EC50 values were determined from experiments shown in (a) above. ***p<0.001 by Student's unpaired t-test. (c & d) MitoSNAP protects against I/R injury in Langendorff-perfused mouse hearts. Hearts from C57BL6 mice were Langendorff perfused and subjected to 25 min global normothermic ischemia followed by 1 h of reperfusion. MitoSNAP or MitoNAP (100 nM final), or vehicle carrier, was added via an infusion port above the aortic cannula during reperfusion. Hearts were then stained with 2,3,5-triphenyltetrazolium chloride (TTC) to visualize infarct. (c) Protection of heart function by MitoSNAP during I/R injury. Left ventricular contractile function was recorded throughout the I/R protocol.
Sprague-Dawley rats (male 250-350 g) were anesthetized by intraperitoneal injection of ketamine and xylazine (100 and 16 mg/kg, respectively) and thoracic aortas were excized and placed in Krebs-Henseleit buffer (pH 7.3) at 37° C. […] The concentrations of MitoSNAP and SNAP were calculated using ε=950 M^−1.cm^−1 and 1168 M^−1.cm^−1 at 340-344 nm respectively in PBS supplemented with 10 μM DTPA.
The uptake of MitoSNAP into mitochondria within vascular tissue and the subsequent NO^• release may make MitoSNAP a potent vasodilator. This was evaluated by determining whether MitoSNAP could relax the smooth muscle in blood vessel walls. […]

| SMILES | S-nitrosation of mitochondrial proteins [1] | EC50 [2] [nM] | maximum S-nitrosation as share of the total number of protein thiols available ([1]; 5 μM) [%] | maximum extent of mitochondrial protein S-nitrosation ([1]; 5 μM) [pmol SNO/mg protein] | S-nitrosated proteins after sulfosalicylic acid lysis and precipitation (control experiment) ([1]; 5 μM, 5 min, mean±SEM of 4) [pmol SNO/mg protein] | time of peak S-nitrosation of mitochondrial proteins ([1]; 5 μM, liver mitochondria) [min] | vasodilator effect after degradation of the SNO moiety ([2]; pretreated (light) to degrade SNO) |
| --- | --- | --- | --- | --- | --- | --- | --- |
| CC(=O)NC(C(=O)O)C(C)(C)SN=O (racemic) [SNAP, S-nitroso-N-acetyl-DL-penicillamine, reference compound] | negligible S-nitrosation | 19.5 |  |  |  |  |  |
| CC(=O)NC(C(=O)NCCCCC[P+](c1ccccc1)(c1ccccc1)c1ccccc1)C(C)(C)SN=O.CS(=O)(=O)[O-] (stereo not drawn) [MitoSNAP, [5-(2-acetylamino-3-methyl-3-nitrosothio-butyrylamino)-penty1]-triphenylphosphonium methanesulfonate] | extensive, concentration-dependent S-nitrosation | 4.5 | ~1 | ~500 | 359±89 | 2 to 3 | ineffective |
